In ChEMBL document CHEMBL1156203, “Synthesis and evaluation of alkenyl indazoles as selective Aurora kinase inhibitors” (Bioorg Med Chem Lett, 2010) one finds IC50 and Ratio IC50 data, which are given here for 21 compounds.

The target of one test is T1, Aurora kinase A (Homo sapiens, UniProt O14965).
T1 sequence (O14965 whole entry): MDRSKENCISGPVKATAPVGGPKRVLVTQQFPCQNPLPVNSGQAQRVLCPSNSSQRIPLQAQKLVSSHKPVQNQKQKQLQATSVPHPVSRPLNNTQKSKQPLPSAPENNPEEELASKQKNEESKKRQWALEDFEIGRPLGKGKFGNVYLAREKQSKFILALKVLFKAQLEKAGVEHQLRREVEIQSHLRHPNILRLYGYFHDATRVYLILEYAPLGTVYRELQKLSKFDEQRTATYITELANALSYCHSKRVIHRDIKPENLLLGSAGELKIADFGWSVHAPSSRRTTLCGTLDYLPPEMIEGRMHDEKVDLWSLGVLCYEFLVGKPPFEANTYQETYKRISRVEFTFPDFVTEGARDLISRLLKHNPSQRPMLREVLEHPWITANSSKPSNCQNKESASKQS
Kind of test: Inhibition of hexahistidine tagged recombinant Aurora A expressed in Hi-5 cells assessed as ATP remaining after 2 hrs by bioluminescence.

Test [1] is described as follows: Selectivity ratio of IC50 for recombinant Aurora A to IC50 for recombinant Aurora B.
A further test deals with Aurora kinase B (Homo sapiens, UniProt Q96GD4). Kind of test: Inhibition of GST tagged recombinant Aurora B expressed in Hi-5 cells after 1 hr by TRF assay.
Sequence of Aurora kinase B (Q96GD4 whole entry): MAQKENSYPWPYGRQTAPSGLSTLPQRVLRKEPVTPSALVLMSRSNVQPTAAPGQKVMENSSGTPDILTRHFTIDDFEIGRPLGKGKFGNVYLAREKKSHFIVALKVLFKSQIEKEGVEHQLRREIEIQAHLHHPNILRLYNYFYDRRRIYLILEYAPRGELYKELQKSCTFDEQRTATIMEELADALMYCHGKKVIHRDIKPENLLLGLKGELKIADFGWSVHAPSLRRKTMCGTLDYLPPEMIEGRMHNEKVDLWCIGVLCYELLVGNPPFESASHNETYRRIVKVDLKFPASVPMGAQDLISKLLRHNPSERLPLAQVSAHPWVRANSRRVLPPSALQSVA

In the case of `Cc1cc2[nH]nc(/C=C/c3ccccc3)c2cc1NC(=O)Cc1ccccc1`, the IC50 at Aurora kinase A stood at 0.019 µM.

On to `COc1ccc(OC)c(CC(=O)Nc2cc3c(/C=C/c4ccccc4)n[nH]c3cc2C)c1`, for which the half-inhibitory concentration (IC50) on Aurora kinase A is 0.042 µM; on Aurora kinase B, 0.18 µM. Also, the Ratio IC50 in test [1] worked out at 0.23.

In the case of `O=C(Cc1ccccc1)Nc1ccc2[nH]nc(/C=C/c3ccccc3)c2c1`, the IC50 on Aurora kinase A came out at 0.022 µM.

On to `O=[N+]([O-])c1cc2c(/C=C/c3ccccc3)n[nH]c2cc1N1CCCC1`, for which the 50% inhibitory concentration (IC50) on Aurora kinase A turned out to be 0.24 µM; at Aurora kinase B, 0.11 µM. The Ratio IC50 in test [1] is 2.2.

For `Cc1cc2[nH]nc(/C=C/c3cccc(NC(=O)N4CCN(C)CC4)c3)c2cc1NC(=O)Cc1cccs1`, the IC50 on Aurora kinase A was 0.013 µM; on Aurora kinase B, 0.046 µM. The Ratio IC50 in test [1] was 0.28.

Turning to `Cc1cc2[nH]nc(C#Cc3ccccc3)c2cc1NC(=O)Cc1cccs1`, the IC50 on Aurora kinase A is 0.24 µM; at Aurora kinase B it was 0.11 µM.

As to `CN1CCN(Cc2cccc(/C=C/c3n[nH]c4ccc(NC(=O)Cc5cccs5)cc34)c2)CC1`, the 50% inhibitory concentration (IC50) at Aurora kinase A stood at 0.035 µM; on Aurora kinase B it was 0.026 µM. Moreover, in test [1], the Ratio IC50 was determined as 1.3.

Turning to `Cc1cc2[nH]nc(/C=C/c3cccc(CN4CCN(C)CC4)c3)c2cc1NC(=O)Cc1cccs1`, the half-maximal inhibitory concentration (IC50) was 0.079 µM at Aurora kinase A and 0.13 µM at Aurora kinase B. In addition, the Ratio IC50 in test [1] amounted to 0.6.

On to `O=C(Cc1ccccc1)Nc1ccc2[nH]nc(CCc3ccccc3)c2c1`, for which the half-maximal inhibitory concentration (IC50) on Aurora kinase A was 1.7 µM.

Regarding `Nc1cc2c(/C=C/c3ccccc3)n[nH]c2cc1N1CCCC1`, the IC50 on Aurora kinase A came out at 0.2 µM; on Aurora kinase B, 0.081 µM. Moreover, in test [1], the Ratio IC50 was 2.5.

Consider `Cc1c(C#N)ccc2[nH]nc(/C=C/c3cccc(CN4CCN(C)CC4)c3)c12`, for which the values for the IC50 at Aurora kinase A and at Aurora kinase B were 0.28 µM and 0.059 µM, respectively. Besides, the Ratio IC50 in test [1] stood at 4.7.

Turning to `C(=C\c1n[nH]c2cc(N3CCCC3)c(-c3ccncc3)cc12)/c1ccccc1`, the half-inhibitory concentration (IC50) at Aurora kinase A is 0.16 µM; at Aurora kinase B, 0.046 µM. In test [1], the Ratio IC50 was 3.5.

In the case of `Cc1cc(N)cc(-c2ccc3[nH]nc(/C=C/c4cccc(CN5CCN(C)CC5)c4)c3c2C)c1`, the half-maximal inhibitory concentration (IC50) stood at 0.35 µM on Aurora kinase A and 0.031 µM on Aurora kinase B. In addition, the Ratio IC50 in test [1] stood at 11.3.

For `O=C(Cc1ccccc1)Nc1ccc2[nH]nc(C3CC3c3ccccc3)c2c1` (centres undefined), the IC50 at Aurora kinase A stood at 0.64 µM; on Aurora kinase B, 1.64 µM.

For the compound `C(=C\c1n[nH]c2cc(N3CCCC3)c(NCc3ccccn3)cc12)/c1ccccc1`, the half-maximal inhibitory concentration (IC50) at Aurora kinase A is 0.62 µM; at Aurora kinase B it was 0.13 µM. In addition, in test [1], the Ratio IC50 amounted to 5.

Turning to `Cc1cc2[nH]nc(/C=C/c3ccccc3)c2cc1NC(=O)Cc1cccs1`, the IC50 on Aurora kinase A is 0.017 µM; at Aurora kinase B, 0.047 µM.

Turning to `O=S(=O)(Cc1ccccc1)Nc1ccc2[nH]nc(/C=C/c3ccccc3)c2c1`, the IC50 on Aurora kinase A was found to be 0.035 µM; at Aurora kinase B, 0.031 µM. For the same compound, in test [1], the Ratio IC50 was found to be 1.1.

Take `CN1CCN(c2cc3[nH]nc(/C=C/c4ccccc4)c3cc2NCc2ccccn2)CC1`: the half-maximal inhibitory concentration (IC50) at Aurora kinase A was greater than 10 µM; on Aurora kinase B, 0.81 µM. Moreover, the Ratio IC50 in test [1] is greater than 12.

As to `CN1CCN(C(=O)Nc2cccc(/C=C/c3n[nH]c4cc(N5CCCC5)c(NS(C)(=O)=O)cc34)c2)CC1`, the half-maximal inhibitory concentration (IC50) came out at 0.14 µM at Aurora kinase A and 0.062 µM on Aurora kinase B. In addition, in test [1], the Ratio IC50 is 2.3.

As to `Cc1c(NC(=O)Cc2cccs2)ccc2[nH]nc(/C=C/c3cccc(CN4CCN(C)CC4)c3)c12`, the IC50 on Aurora kinase A was 1.9 µM; on Aurora kinase B, 0.099 µM. In test [1], the Ratio IC50 was found to be 19.

As to `O=C(Cc1cccs1)Nc1cc2c(/C=C/c3ccccc3)n[nH]c2cc1N1CCCC1`, the concentration for half-maximal inhibition (IC50) at Aurora kinase A was 0.091 µM; on Aurora kinase B it was 0.11 µM. In addition, the Ratio IC50 in test [1] came out at 0.8.
